These are literature values, as cited in patent US20200397766A1, “POROUS EMBOLIZATION MICROSPHERES COMPRISING DRUGS” (VAN RIJN BEHEER B.V., priority 2018, published 2020).

As to `OCCN(CCO)c1nc(N2CCCCC2)c2nc(N(CCO)CCO)nc(N3CCCCC3)c2n1` [Dipyridamole, dipyridamole], the “solubility in DMSO” value (DMSO) is given as “high solubility in DMSO”. In addition, the solubility in water result (water) is “low solubility in water”.
